Results taken from patent US20060069136A1, “Use of Epothilones in the treatment of bone metastasis” (priority 2004, published 2006).
Where “and” joins values, the source holds several entries; their conditions need not be identical. Equal values may be shown once.

How the values were obtained:
[1] = test system: Human breast cancer MDA MB 231; assay: Bone metastasis model, Example 1: treatment on Day 10, X-ray on Day 22, survival; assay type: in vivo, NMRI nude mice
Procedure: (§1) Human breast cancer MDA MB 231, injected to NMRI nude mice intracardially
Four days before tumor cells implantation, the baseline bone structure of the mice was determined by X-ray. 30 NMRI nude mice received 500,000 of MDA-MB 231 breast cancer tumor cells intracardially (Day 0). The tumor cells metastasized to the bones and the growth of the tumor in the bones lead to bone destruction. After the period of 10 days (Day 10), 10 of the […] animals were treated with the Test Compound (10 mg/kg, i.v.). The size and number of bone metastases were monitored 4 days before tumor cell implantation (baseline) and on Day 22 in each animal using the X-ray technology described below.
The mice underwent an anaesthesia with a mixture of Rompun (Rompun 2% Bayer) diluted with sodium chloride solution(Braun) by 1:10 and Ketavet ( Pharmacia GmbH 100 mg/ml), diluted by 1:5 with isotonic sodium chloride solution. For application of the narcotics, 1 ml sterile syringes (Codan Medical) and cannula (Braun Sterican, size 18) were used.
Once the tolerance stage was reached, the mice were attached to a 1 mm strong acrylic glass and additionally taped with a self-adhesive tape (sticky side facing the animal). The acrylic glass served as surface on which the animals underwent the X-ray.
At the console of the Mammomat (run by the software “Detector” (Ifg) on Windows NT platform), the standard setting of 35 kV and 400 mAs was adjusted. The setting was chosen in such a way to allow a good contrasting of the entire skeletal system and visibility of finest changes/aberrations of the bone structure and morphology. The resolution of the systems lies at 0,27 μm.
After initializing the Software the module “Zoomed Modus” was chosen for the detector and the ROIs 2-3 were selected in accordance with the previously selected positioning of the mouse. The regulator Image High was adjusted to 2000.
The actual measurements were started as soon as the Offset measurings and the reference measurings had been performed. The flexible table was brought into position (80 mm) and was advanced at a speed of 25,9 mm/sec. The final position of the table was chosen in such a way that the entire body of the mouse could be X-rayed all at once during the examination. The reference measuring was subtracted from each gained Image and was stored as a DICOM-file or as a BMP-file.
Analysis of the treatment was performed on Day 22 by evaluating twice the constructed exposures of the mice and searching for destructive processes of the skeletal system (focussing mainly on the long bones, spine and pelvis). The extend/area of the destructive processes/bone metastasis were determined with a special DICOM-Software (based on Microsoft Excel).

[2] = test system: Human breast cancer MDA MB 231; assay: Bone metastasis model, Example 2: treatment on Day 5, X-ray on Day 20; assay type: in vivo, NMRI nude mice; settings: 10 mg/kg i.v. on Day 5
Procedure: as §1
30 NMRI nude mice received 500,000 of MDA-MB 231 breast cancer tumor cells intracardially (Day 0). The tumor cells metastasized to the bones and the growth of the tumor in the bones lead to bone destruction. In addition, the development of tumors near the tumor cell injection site is observed. After 5 days (Day 5), 15 of the 30 animals were treated with the Test Compound (10 mg/kg, i.v.). On Day 20 the experiment was terminated and the size and number of bone metastases were measured in each animal using the X-ray technology described in example 1. In addition, the numer of animals which developed tumors at the tumor cell injection site was determined.

[3] = 10 mg/kg i.v. on Day 10, result in words
[4] = mean per animal, measured on Day 20 by X-ray, 10 mg/kg

**Q.** What does the source list for `C=CCC1C(=O)C(C)(C)C(O)CC(=O)OC(c2ccc3sc(C)nc3c2)CC2OC2(C)CCCC(C)C1O` (stereo not shown) [Test Compound, 7,11-dihydroxy-3-(2-methyl-benzothiazol-5-yl)-10-(prop-2-en-1-yl)-8,8,12,16-tetramethyl-4,17-dioxabicyclo[14.1.0]heptadecane-5,9-dione]?
**A.** Effect on bone metastasis (FIG. 1) [1, 3]: inhibited bone metastasis; Effect on life time (FIG. 1) [1, 3]: prolongation of life time was observed; Mean Survival Time ([1]; 10 mg/kg i.v., single application on Day 10, MDA-MB 231 cells intracardially): 31.6 days; Mean Bone Tumor Area ([1]; 10 mg/kg i.v., single treatment on Day 10, X-ray analysis on Day 22, MDA-MB 231 cells intracardially): 5.9 mm^2; Number of bone-metastases [2, 4]: 0.7 and 0.7 ± 0.9; Size of bone-metastases [2, 4]: 0.1 mm^2 and 0.1 ± 0.2 mm^2; Number of animals which developed tumors at the tumor cell injection site ([2]; of 15 animals, Day 20): 0
